Measurements: patent US11993598B2, “Compounds for inhibiting EGFR kinase, preparation methods and uses thereof” (WIGEN BIOMEDICINE TECHNOLOGY (SHANGHAI) CO., LTD., priority 2019, dated 2024)

What was measured:
EGFR-WT = EGFR-WT (Homo sapiens, UniProt P00533); test: Wild-type EGFR biochemical activity assay (HTRF)
Method: (§1) Assay 1: Wild-type EGFR, HER2 and HER4, and mutant EGFR biochemical activity assay
(§2) 10 nL of Serially diluted compounds were transferred to assay plates using the labcyte Echo 550, and 5 uL of 2× enzymes in assay buffer were subsequently dispensed. The assay plate was covered with an adhesive plate seal, and briefly spinned for 30 s at 1000 g. 5 uL of 2× TK-substrate-biotin and ATP mixed in assay buffer were added.
(§3) IC50 was calculated and analyzed using a 4 parametric logistic model.

EGFR A763_Y764insFHEA = EGFR A763_Y764insFHEA (Homo sapiens, UniProt P00533, INS763FHEA); test: Mutant EGFR biochemical activity assay (HTRF); conditions: read-out: IC50 (nM) EGFR A763_Y764 insFHEA
Method: as §1, §2, §3

EGFR D770-N771insNPG = EGFR D770-N771insNPG (Homo sapiens, UniProt P00533, INS770NPG); test: Mutant EGFR biochemical activity assay (HTRF)
Chain of EGFR D770-N771insNPG (P00533 with tags, fused parts or gaps INS770NPG limits assumed): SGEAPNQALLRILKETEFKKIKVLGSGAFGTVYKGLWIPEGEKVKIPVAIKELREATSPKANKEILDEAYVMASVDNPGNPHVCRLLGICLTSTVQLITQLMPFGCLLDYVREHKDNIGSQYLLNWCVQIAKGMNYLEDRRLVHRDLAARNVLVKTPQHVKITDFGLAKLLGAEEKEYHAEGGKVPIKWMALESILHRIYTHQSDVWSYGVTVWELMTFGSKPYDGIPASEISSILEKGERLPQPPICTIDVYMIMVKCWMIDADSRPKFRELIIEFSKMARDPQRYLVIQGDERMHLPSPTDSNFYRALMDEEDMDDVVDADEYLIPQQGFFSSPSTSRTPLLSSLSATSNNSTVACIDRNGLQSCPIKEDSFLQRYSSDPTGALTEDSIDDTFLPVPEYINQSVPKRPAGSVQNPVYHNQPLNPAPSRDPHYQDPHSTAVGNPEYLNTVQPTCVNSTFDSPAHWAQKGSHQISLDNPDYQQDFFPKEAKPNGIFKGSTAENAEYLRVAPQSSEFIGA
Method: as §1, §2, §3

EGFR D770GY = EGFR D770GY (Homo sapiens, UniProt P00533, D770Y/INS769G); test: Mutant EGFR biochemical activity assay (HTRF)
Chain of EGFR D770GY (P00533 with tags, fused parts or gaps INS769G/D770Y limits assumed): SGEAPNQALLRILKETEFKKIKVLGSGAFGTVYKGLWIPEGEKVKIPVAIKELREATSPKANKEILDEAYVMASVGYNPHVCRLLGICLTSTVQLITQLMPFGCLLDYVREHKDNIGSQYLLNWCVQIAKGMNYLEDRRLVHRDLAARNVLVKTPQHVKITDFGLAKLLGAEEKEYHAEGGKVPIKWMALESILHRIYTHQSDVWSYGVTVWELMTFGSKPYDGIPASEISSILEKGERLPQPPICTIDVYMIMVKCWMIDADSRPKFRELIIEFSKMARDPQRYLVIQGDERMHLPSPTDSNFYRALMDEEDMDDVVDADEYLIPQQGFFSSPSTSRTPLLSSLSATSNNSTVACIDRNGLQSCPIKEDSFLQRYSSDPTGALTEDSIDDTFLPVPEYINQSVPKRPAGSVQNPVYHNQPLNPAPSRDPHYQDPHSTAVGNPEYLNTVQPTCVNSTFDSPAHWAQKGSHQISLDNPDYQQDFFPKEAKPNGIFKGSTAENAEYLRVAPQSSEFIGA
Method: as §1, §2, §3

[1] = biological target: EGFR D770_N771insNPG T790M (Homo sapiens, UniProt P00533, INS770NPG/T790M); test: Mutant EGFR biochemical activity assay (HTRF); conditions: read-out: IC50 (nM) EGFR D770_N771 insNPG T790M
Method: as §1, §2, §3

EGFR Del19 = EGFR Del19 (Homo sapiens, UniProt P00533); test: Mutant EGFR biochemical activity assay (HTRF)
Method: as §1, §2, §3

EGFR L792F = EGFR L792F (Homo sapiens, UniProt P00533, L792F); test: Mutant EGFR biochemical activity assay (HTRF)
Chain of EGFR L792F (P00533 25-1210 L792F): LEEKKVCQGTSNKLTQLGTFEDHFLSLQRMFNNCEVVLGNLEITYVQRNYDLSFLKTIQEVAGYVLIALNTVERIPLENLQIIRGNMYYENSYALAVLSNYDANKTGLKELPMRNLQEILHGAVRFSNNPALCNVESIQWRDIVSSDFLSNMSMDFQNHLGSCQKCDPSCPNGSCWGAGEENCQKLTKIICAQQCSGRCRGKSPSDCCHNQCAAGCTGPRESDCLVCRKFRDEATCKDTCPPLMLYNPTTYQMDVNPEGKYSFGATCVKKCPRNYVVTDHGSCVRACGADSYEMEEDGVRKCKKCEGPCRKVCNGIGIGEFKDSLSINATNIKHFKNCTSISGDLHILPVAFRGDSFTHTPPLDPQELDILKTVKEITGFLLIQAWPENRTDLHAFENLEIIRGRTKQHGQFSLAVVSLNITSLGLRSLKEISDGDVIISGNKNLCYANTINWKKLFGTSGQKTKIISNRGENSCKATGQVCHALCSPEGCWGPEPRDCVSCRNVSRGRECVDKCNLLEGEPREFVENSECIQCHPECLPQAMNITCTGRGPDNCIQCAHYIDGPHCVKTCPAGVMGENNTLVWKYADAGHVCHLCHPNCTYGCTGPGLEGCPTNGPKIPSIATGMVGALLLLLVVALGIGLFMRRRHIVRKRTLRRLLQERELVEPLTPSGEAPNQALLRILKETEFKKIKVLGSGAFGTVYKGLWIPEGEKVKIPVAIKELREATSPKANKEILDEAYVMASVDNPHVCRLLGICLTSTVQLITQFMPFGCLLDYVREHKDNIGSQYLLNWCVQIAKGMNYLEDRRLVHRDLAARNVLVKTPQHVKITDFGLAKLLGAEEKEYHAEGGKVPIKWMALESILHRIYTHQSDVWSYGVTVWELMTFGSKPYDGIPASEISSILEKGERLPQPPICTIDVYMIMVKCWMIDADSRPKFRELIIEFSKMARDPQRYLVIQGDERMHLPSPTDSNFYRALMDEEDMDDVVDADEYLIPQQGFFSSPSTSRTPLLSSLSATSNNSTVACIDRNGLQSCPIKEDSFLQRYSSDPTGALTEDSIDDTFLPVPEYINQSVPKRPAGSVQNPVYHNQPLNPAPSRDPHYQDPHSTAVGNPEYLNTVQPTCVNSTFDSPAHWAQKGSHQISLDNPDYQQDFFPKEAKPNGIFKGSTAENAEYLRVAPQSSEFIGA
Method: as §1, §2, §3

EGFR L792H = EGFR L792H (Homo sapiens, UniProt P00533, L792H); test: Mutant EGFR biochemical activity assay (HTRF)
Method: as §1, §2, §3

EGFR T790M = EGFR T790M (Homo sapiens, UniProt P00533, T790M); test: Mutant EGFR biochemical activity assay (HTRF)
Chain of EGFR T790M (P00533 25-1210 T790M): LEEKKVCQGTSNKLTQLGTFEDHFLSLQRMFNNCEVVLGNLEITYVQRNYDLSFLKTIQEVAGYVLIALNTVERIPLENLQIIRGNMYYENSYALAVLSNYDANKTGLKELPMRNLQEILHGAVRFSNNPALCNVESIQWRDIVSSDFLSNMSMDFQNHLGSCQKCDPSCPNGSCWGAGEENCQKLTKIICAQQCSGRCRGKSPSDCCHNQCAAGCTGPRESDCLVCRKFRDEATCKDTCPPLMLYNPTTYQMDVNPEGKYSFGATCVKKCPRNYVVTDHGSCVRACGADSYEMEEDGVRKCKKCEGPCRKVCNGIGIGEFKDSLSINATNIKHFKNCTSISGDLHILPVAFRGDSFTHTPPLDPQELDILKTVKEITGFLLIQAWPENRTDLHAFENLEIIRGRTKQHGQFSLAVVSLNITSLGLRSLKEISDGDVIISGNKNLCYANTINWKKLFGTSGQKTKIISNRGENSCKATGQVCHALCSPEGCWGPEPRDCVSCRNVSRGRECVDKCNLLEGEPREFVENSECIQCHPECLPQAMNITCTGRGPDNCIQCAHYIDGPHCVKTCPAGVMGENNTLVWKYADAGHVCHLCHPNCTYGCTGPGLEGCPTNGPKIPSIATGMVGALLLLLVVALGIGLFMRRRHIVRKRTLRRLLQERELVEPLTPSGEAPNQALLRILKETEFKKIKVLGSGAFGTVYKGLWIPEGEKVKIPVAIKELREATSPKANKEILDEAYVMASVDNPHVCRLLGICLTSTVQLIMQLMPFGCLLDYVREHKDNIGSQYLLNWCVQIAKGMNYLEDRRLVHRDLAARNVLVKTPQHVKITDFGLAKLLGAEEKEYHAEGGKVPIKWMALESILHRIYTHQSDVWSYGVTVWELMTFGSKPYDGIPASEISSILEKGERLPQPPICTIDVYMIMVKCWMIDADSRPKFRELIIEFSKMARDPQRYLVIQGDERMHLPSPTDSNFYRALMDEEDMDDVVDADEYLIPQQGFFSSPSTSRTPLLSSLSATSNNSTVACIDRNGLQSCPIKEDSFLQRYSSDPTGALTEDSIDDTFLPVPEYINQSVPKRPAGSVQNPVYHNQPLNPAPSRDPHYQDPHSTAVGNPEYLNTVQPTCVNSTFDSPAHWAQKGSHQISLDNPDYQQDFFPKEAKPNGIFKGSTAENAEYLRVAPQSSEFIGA
Method: as §1, §2, §3

EGFR T790M/L858R = EGFR T790M/L858R (Homo sapiens, UniProt P00533, L858R/T790M); test: Mutant EGFR biochemical activity assay (HTRF)
Method: as §1, §2, §3

HER4 = HER4 (Homo sapiens, UniProt Q15303); test: HER4 biochemical activity assay (HTRF)
Chain of HER4 (Q15303 26-1308): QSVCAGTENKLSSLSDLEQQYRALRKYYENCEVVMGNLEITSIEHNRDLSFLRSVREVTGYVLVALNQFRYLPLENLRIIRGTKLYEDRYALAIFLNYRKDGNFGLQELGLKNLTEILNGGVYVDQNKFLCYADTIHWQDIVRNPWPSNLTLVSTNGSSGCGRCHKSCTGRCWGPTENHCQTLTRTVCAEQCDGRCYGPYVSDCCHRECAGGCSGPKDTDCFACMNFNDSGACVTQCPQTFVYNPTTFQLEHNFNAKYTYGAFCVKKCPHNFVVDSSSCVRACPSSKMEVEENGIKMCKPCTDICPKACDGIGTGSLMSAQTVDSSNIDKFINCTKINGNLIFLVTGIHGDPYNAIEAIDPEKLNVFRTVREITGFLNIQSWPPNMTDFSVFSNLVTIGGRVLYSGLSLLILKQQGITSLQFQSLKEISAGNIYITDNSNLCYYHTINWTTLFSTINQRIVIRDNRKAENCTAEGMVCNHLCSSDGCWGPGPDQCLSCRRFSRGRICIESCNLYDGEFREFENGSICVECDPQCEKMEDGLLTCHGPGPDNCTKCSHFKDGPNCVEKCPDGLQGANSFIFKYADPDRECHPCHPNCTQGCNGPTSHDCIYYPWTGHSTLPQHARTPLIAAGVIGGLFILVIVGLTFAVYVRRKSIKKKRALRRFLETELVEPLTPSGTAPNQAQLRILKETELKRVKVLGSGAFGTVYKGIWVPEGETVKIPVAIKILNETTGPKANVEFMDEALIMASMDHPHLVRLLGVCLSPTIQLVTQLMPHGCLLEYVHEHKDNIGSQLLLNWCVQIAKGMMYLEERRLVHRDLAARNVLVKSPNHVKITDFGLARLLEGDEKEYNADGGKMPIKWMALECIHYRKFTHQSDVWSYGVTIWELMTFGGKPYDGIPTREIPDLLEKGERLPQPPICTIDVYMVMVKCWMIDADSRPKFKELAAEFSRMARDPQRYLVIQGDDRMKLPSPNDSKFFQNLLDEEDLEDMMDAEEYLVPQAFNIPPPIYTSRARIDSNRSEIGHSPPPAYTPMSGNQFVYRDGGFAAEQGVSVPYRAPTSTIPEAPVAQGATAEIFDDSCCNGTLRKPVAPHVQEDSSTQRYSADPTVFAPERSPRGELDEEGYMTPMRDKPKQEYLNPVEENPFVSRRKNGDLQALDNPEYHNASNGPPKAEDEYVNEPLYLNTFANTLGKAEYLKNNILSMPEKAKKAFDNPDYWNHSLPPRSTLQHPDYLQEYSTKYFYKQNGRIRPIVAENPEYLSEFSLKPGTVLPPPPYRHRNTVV
Method: as §1, §2, §3

[2] = tested on: A431 (wild type EGFR, skin cancer); test: Cell proliferation assay (MTT); assay type: cell-based; conditions: Homo sapiens, A-431, 72 h, three days
Method: (§4) A431 cells, H1975 and Ba/F3 cells expressing various mutant EGFR were harvested from exponential phase cultures and seeded in 96-well plates at a cell density of 3000 per well for A431 and H1975, and 10000 per well for Ba/F3 cells. After overnight attachment, compounds were 3-fold serially diluted and applied to cells at 30 μM, 10 μM, 3 μM, 1 μM, 0.3 μM, […], 0.03 μM and 0.01 μM with triplicates, and incubated for three days. 20 μL of 5 mg/mL MTT was added afterwards followed by the further addition of 50 μL 10% SDS together with 5% isobutyl alcohol in 0.01 mol/L HCl. The plates were incubated overnight. Absorbance (A) at a wavelength of 570 nm was quantified. Percentage of inhibition was used for the calculation of IC50 based on the bliss method.

[3] = biological target: Ba/F3_EGFR D770_N771insSVD (Homo sapiens, UniProt P00533, DUP768-770, cells depend on it); test: Cell proliferation assay (MTT); assay type: cell-based; conditions: three days, read-out: Ba/F3_EGFR D770_N771insSVD IC50
Method: as §4

LU-01-0426 = test: Patient derived xenograft (PDX) mouse model; assay type: in vivo, nude mice
Method: (§5) Assay 3. In vivo studies in cell line-derived (CDX) and patient derived xenografts (PDX) mouse models
(§6) Cells (H1975) or tissue pieces (LU0493 and LU0426) were implanted subcutaneously into the left armpit of nude mice. When the average tumor volume reached 100-150 mm^3, mice were randomized by tumor volume and treated with vehicle, compound 1 or poziotinib respectively. Tumor volume and body weight were measured twice per week. Mice were sacrificed on day 21 or day 28, and tumor volume and terminal body weight were recorded. The relative tumor volume, percent of treatment/control values and tumor growth inhibition were calculated and statistics was performed.
(§7) Terminal body weight changes were calculated as percentage of body changes from day 1 to day 21.

LU-01-0493 = test: Patient derived xenograft (PDX) mouse model; assay type: in vivo, nude mice
Method: as §5, §6, §7

LU-0387 = test: Xenograft mouse model LU-0387; assay type: in vivo, nude mice
[4] = tested on: PC9 cells expressing luciferase; test: In vivo orthotopic brain PC9 xenograft mouse model; conditions: oral
Method: Assay 4. In vivo orthotopic brain PC9 xenograft mouse model
3×10^5 PC9 cells expressing luciferase were injected to the mouse brain. Mice were randomized based on brain flurorescence intensity and body weight, and were orally administered vehicle or compound 1. Survival and body weights were monitored every day and mice with more than 20% body weight loss were sacrificed.

[5] = tested on: tumor growth with EGFR exon 20 insertions and T790M mutations; test: In vivo CDX and PDX mouse models, overall statement; set-up: species or system nude mice
Method: as §5, §6, §7

C=CC(=O)Nc1cc(Nc2nccc(-n3c(=O)n4c5c(cc(F)cc53)CCC4)n2)c(OC)cc1N(C)CCN(C)C [Compound 1, N-(2-((2-(dimethylamino)ethyl)(methyl)amino)-5-((4-(8-fluoro-2-oxo-5,6-dihydro-4H-imidazo[4,5,1-ij]quinolin-1(2H)-yl)pyrimidin-2-yl)amino)-4-methoxyphenyl)acrylamide]
IC50 (EGFR-WT): 1.56 nM
IC50 (EGFR A763_Y764insFHEA): 0.264 nM
IC50 (EGFR D770-N771insNPG): 0.063 nM
IC50 (EGFR D770GY): 0.0649 nM
IC50 [1]: 0.049 nM
IC50 (EGFR Del19): 0.175 nM
IC50 (EGFR L792F): 1.26 nM
IC50 (EGFR L792H): 27.6 nM
IC50 (EGFR T790M): 0.0526 nM
IC50 (EGFR T790M/L858R): 0.0639 nM
IC50 (HER4): 0.769 nM
IC50 [2]: 157 nM
GI50 [3]: 7.06 nM
TGI (%) (LU-01-0426; LU-01-0426, 15 mg/kg compound 1): 47%
Terminal body weight changes (%) (LU-01-0426; LU-01-0426, 15 mg/kg compound 1, day 1 to day 21): 5.7%
TGI (%) (LU-01-0426; LU-01-0426, 30 mg/kg compound 1): 84%
Terminal body weight changes (%) (LU-01-0426; LU-01-0426, 30 mg/kg compound 1, day 1 to day 21): 1.8%
TGI (%) (LU-01-0426; LU-01-0426, 60 mg/kg compound 1): 106.3%
Terminal body weight changes (%) (LU-01-0426; LU-01-0426, 60 mg/kg compound 1, day 1 to day 21): −2%
TGI (%) (LU-01-0493; LU-01-0493, 15 mg/kg compound 1): 55.4%
Terminal body weight changes (%) (LU-01-0493; LU-01-0493, 15 mg/kg compound 1, day 1 to day 21): 3.2%
TGI (%) (LU-01-0493; LU-01-0493, 30 mg/kg compound 1): 72.3%
Terminal body weight changes (%) (LU-01-0493; LU-01-0493, 30 mg/kg compound 1, day 1 to day 21): −6.1%
TGI (%) (LU-01-0493; LU-01-0493, 60 mg/kg compound 1): 88.9%
Terminal body weight changes (%) (LU-01-0493; LU-01-0493, 60 mg/kg compound 1, day 1 to day 21): −6.5%
TGI (%) (LU-0387; LU-0387, 30 mg/kg compound 1): 42%
Terminal body weight changes (%) (LU-0387; LU-0387, 30 mg/kg compound 1, day 1 to day 21): −7.75%
TGI (%) (LU-0387; LU-0387, 60 mg/kg compound 1): 95%
Terminal body weight changes (%) (LU-0387; LU-0387, 60 mg/kg compound 1, day 1 to day 21): 1.26%
Mice Survival Rate (%) ([4]; 30 mg/kg QD, Day 16): 100%
Mice Survival Rate (%) ([4]; 30 mg/kg QD, Day 17): 100%
Mice Survival Rate (%) ([4]; 30 mg/kg QD, Day 18): 100%
Mice Survival Rate (%) ([4]; 30 mg/kg QD, Day 22): 100%
Mice Survival Rate (%) ([4]; 30 mg/kg QD, Day 24): 100%
Mice Survival Rate (%) ([4]; 30 mg/kg QD, Day 26): 100%
Mice Survival Rate (%) ([4]; 30 mg/kg QD, Day 28): 100%
Mice Survival Rate (%) ([4]; 60 mg/kg BID, Day 16): 100%
Mice Survival Rate (%) ([4]; 60 mg/kg BID, Day 17): 100%
Mice Survival Rate (%) ([4]; 60 mg/kg BID, Day 18): 100%
Mice Survival Rate (%) ([4]; 60 mg/kg BID, Day 22): 100%
Mice Survival Rate (%) ([4]; 60 mg/kg BID, Day 24): 100%
Mice Survival Rate (%) ([4]; 60 mg/kg BID, Day 26): 100%
Mice Survival Rate (%) ([4]; 60 mg/kg BID, Day 28): 100%
Mice Survival Rate (%) ([4]; 60 mg/kg QD, Day 16): 100%
Mice Survival Rate (%) ([4]; 60 mg/kg QD, Day 17): 100%
Mice Survival Rate (%) ([4]; 60 mg/kg QD, Day 18): 100%
Mice Survival Rate (%) ([4]; 60 mg/kg QD, Day 22): 100%
Mice Survival Rate (%) ([4]; 60 mg/kg QD, Day 24): 100%
Mice Survival Rate (%) ([4]; 60 mg/kg QD, Day 26): 100%
Mice Survival Rate (%) ([4]; 60 mg/kg QD, Day 28): 100%
impact on body weight compared to poziotinib, in words [5]: less impacts on body weight
